For one experiment, the target named is T1, HDAC6 (Homo sapiens, UniProt Q9UBN7).
T1 sequence (Q9UBN7 1-1215): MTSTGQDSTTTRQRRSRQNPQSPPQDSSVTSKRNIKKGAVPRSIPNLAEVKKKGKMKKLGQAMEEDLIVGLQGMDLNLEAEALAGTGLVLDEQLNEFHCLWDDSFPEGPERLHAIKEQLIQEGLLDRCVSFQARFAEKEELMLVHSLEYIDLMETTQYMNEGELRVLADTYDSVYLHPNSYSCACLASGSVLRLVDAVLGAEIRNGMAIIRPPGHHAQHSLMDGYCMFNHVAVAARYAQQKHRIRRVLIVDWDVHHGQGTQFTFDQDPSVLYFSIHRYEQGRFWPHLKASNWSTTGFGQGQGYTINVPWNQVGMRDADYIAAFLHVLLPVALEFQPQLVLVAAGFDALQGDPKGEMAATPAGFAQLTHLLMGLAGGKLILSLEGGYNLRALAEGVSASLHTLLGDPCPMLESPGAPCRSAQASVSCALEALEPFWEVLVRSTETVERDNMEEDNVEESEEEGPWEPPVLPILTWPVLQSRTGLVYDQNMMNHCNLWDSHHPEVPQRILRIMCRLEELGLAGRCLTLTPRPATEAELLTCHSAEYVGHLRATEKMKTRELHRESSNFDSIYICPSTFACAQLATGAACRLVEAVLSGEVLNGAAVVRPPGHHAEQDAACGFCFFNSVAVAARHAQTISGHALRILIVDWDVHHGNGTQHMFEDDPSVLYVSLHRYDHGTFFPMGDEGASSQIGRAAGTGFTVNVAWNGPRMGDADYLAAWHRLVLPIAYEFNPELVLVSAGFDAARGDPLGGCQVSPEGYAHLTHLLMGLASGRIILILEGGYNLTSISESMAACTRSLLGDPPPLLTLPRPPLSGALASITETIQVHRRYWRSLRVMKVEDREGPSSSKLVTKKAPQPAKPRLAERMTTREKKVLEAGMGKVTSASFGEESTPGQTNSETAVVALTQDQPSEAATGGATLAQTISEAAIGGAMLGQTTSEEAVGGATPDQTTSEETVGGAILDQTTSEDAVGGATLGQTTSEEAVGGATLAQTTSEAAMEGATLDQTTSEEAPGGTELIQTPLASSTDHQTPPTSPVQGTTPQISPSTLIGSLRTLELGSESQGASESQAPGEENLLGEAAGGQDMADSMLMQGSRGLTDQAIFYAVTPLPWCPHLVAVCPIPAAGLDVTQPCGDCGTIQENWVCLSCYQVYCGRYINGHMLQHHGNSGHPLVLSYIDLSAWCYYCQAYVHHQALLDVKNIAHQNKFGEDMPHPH
Kind of experiment: HDAC6 enzymatic inhibition assay. The experiment is classed as biochemical.

A further experiment deals with HDAC2 (Homo sapiens, UniProt Q92769). The experiment in a line: HDAC2 enzymatic inhibition assay.

Several values for one entry are separate records, joined by “and”; a condition that tells them apart may be missing. Identical values can stand only once.

Chain of HDAC2 (Q92769 whole entry): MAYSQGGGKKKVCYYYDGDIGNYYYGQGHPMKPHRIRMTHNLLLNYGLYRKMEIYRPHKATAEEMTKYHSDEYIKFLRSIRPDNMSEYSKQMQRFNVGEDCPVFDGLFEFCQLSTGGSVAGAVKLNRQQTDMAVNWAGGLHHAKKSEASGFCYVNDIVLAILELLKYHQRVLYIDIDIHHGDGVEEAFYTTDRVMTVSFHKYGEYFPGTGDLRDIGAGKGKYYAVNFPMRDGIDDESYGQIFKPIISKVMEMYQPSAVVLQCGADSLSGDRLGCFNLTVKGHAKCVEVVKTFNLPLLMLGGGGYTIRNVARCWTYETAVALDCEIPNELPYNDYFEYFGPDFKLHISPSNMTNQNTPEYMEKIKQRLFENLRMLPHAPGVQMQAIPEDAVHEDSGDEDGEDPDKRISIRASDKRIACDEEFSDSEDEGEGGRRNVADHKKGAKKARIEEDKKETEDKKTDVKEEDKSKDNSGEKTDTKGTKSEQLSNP

For `Cc1nc2ccc(F)cc2n1Cc1ccc(C(=O)NO)cc1` [30a, 4-[(6-Fluoro-2-methyl-1-benzimidazolyl)methyl]-N-hydroxybenzamide], the IC50 (usually the concentration that gives 50% inhibition) against HDAC6 (HDAC6 IC50, singlet 10-dose IC50 mode, 3-fold serial dilution starting at 1 μM) is 3.12 nM; against HDAC6 (IC50 (nM) HDAC6, mean of two experiments ± standard deviation, 10-point enzymatic assay starting from 30 μM, 3-fold serial dilution), 5 nM and 5.2 nM; at HDAC2, 7.43 µM. In addition, the “Selectivity HDAC1/HDAC6” value on HDAC6 (ratio of HDAC1 and HDAC6 IC50 of Table 1 (fold)) is given as 562.

The values are drawn from article PMC4775085 (ACS chemical neuroscience, 2015).
